Data: ChEMBL document CHEMBL5252509, “In depth analysis of kinase cross screening data to identify chemical starting points for inhibition of the Nek family of kinases” (Medchemcomm, 2018)
“And” between values parts separate entries of the source, which are not always exact repeats. Identical values can stand only once.

Experiments:
[1] = target: T1, Serine/threonine-protein kinase Nek5 (Homo sapiens) (UniProt Q6P3R8); experiment: Inhibition of NEK5 (unknown origin) at 10 uM relative to control
T1 sequence (whole entry): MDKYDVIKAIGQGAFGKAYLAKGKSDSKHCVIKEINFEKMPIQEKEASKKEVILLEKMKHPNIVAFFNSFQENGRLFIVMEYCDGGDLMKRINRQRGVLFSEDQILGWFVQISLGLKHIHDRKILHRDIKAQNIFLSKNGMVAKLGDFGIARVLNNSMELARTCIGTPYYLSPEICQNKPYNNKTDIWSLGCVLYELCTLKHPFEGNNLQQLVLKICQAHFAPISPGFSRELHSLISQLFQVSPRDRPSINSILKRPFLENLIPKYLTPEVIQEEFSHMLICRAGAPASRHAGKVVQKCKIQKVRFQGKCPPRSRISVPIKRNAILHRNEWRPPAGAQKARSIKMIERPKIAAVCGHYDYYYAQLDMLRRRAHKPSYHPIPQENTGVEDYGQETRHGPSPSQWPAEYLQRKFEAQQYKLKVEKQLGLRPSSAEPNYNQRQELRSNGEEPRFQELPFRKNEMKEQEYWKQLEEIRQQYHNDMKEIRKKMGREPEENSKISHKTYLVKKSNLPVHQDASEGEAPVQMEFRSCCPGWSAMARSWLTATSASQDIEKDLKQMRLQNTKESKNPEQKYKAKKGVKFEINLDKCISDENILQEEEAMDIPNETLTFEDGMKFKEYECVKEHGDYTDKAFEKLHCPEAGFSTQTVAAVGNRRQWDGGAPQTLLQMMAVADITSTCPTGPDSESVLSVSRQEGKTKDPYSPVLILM

[2] = target: Serine/threonine-protein kinase Nek4 (Homo sapiens) (UniProt P51957); experiment: Inhibition of NEK4 (unknown origin) at 10 uM relative to control
[3] = target: Serine/threonine-protein kinase Nek7 (Homo sapiens) (UniProt Q8TDX7); experiment: Inhibition of NEK7 (unknown origin) at 10 uM relative to control
[4] = target: T2, Serine/threonine-protein kinase Nek9 (Homo sapiens) (UniProt Q8TD19); experiment: Inhibition of NEK9 (unknown origin) at 1 uM relative to control
T2 sequence (whole entry): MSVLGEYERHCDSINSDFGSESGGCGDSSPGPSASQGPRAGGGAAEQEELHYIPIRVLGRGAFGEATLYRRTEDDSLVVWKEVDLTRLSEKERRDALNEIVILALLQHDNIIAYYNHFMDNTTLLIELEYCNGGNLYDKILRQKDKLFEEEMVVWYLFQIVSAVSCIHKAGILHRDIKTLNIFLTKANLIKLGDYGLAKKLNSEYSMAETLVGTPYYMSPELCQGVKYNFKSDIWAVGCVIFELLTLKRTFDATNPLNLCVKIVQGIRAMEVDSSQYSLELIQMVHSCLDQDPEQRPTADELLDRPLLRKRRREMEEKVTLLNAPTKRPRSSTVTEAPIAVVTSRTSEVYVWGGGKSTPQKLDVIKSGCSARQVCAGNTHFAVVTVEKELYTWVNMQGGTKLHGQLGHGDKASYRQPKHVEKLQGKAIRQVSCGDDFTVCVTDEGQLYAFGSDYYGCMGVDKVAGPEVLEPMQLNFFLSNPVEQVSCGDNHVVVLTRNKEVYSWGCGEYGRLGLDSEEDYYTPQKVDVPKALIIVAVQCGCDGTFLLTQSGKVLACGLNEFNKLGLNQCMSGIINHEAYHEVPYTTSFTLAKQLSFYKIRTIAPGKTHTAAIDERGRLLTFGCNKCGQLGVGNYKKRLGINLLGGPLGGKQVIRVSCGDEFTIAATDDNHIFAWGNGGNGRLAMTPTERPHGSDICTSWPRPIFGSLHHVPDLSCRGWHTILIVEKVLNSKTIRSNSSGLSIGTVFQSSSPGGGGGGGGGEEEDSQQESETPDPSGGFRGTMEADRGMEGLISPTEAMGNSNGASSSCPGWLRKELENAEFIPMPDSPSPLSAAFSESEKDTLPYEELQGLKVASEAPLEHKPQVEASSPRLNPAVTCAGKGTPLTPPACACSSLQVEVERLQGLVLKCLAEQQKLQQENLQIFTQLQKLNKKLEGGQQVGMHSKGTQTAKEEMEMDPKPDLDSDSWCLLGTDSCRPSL

[5] = target: T3, Serine/threonine-protein kinase Nek11 (Homo sapiens) (UniProt Q8NG66); experiment: Inhibition of NEK11 (unknown origin) at 1 uM relative to control
T3 sequence (whole entry): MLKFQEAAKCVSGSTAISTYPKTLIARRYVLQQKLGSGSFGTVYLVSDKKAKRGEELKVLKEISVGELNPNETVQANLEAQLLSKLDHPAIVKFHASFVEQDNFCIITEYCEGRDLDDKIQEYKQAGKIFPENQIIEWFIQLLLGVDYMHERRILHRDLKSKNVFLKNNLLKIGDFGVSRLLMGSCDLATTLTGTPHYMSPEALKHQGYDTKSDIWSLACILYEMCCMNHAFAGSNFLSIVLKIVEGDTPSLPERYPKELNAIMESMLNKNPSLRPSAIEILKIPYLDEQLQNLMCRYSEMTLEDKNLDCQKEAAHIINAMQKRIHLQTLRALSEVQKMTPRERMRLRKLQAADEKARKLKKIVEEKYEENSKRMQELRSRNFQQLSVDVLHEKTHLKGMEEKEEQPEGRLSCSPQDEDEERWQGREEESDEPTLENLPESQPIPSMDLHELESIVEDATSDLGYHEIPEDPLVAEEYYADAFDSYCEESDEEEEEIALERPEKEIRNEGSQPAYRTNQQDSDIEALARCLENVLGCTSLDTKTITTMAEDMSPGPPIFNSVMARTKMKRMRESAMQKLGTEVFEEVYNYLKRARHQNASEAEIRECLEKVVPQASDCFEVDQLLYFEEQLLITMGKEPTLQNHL

[6] = target: Serine/threonine-protein kinase Nek7 (Homo sapiens) (UniProt Q8TDX7); experiment: Inhibition of NEK7 (unknown origin) at 1 uM relative to control
[7] = target: T1, Serine/threonine-protein kinase Nek5 (Homo sapiens); experiment: Inhibition of NEK5 (unknown origin) at 1 uM relative to control

Sequence of Serine/threonine-protein kinase Nek7 (Homo sapiens) (Q8TDX7 whole entry, looked up): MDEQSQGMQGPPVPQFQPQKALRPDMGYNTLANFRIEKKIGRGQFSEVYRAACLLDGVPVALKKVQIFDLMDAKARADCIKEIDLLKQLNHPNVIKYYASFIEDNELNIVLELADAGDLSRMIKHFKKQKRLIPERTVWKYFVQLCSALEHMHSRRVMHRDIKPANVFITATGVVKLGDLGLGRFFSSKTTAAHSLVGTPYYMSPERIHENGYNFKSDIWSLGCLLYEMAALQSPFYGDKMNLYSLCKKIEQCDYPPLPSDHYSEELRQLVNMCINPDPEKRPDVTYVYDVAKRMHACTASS
Sequence of Serine/threonine-protein kinase Nek4 (Homo sapiens) (P51957 whole entry, looked up): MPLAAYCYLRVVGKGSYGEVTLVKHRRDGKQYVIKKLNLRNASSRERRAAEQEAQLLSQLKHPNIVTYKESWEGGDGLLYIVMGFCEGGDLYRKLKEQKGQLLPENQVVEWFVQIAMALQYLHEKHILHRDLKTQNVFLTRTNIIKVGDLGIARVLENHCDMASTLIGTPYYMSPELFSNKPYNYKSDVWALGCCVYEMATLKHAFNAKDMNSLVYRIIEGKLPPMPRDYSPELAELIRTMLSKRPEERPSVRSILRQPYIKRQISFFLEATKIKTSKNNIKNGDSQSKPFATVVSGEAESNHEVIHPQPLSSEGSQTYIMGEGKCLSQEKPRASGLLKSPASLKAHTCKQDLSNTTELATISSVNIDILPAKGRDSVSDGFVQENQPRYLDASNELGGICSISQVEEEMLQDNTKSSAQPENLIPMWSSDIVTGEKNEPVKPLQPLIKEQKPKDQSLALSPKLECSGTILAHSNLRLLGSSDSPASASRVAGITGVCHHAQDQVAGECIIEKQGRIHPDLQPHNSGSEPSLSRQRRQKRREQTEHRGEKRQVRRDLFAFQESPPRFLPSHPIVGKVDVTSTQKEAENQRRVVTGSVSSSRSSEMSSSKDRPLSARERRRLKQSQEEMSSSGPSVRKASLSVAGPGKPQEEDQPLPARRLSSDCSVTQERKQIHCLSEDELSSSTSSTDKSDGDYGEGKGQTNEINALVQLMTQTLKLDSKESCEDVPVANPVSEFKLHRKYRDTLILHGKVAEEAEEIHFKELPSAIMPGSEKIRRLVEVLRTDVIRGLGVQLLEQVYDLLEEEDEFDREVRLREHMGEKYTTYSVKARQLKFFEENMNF

Row | SMILES | % control [1] [%] | % control [2] [%] | % control [3] [%] | inhibition [4] [%] | inhibition [5] [%] | inhibition [6] [%] | inhibition [7]
1 | CN(C)C/C=C/C(=O)Nc1cccc(C(=O)Nc2ccc(Nc3nccc(-c4c(-c5ccccc5)nn5ccccc45)n3)cc2)c1 | 98 | 100 | 100 |  |  |  | 
2 | COc1cccc(C2=C(Nc3cccc(O)c3)C(=O)NC2=O)c1 |  |  |  | 15 | 0 | 7 | 2%
3 | Cc1ccc(CC(=O)N2CCc3cc(-c4cn(C)c5ncnc(N)c45)ccc32)cc1 |  |  |  | 20 | 59 | 0 | 45%
4 | COc1cccc(C2=C(Nc3ccc(Cl)c(C(=O)O)c3)C(=O)NC2=O)c1 |  |  |  | 0 | 27 | 0 | 3%
5 | CC(C)c1nc(-c2cccc(NS(=O)(=O)c3c(F)cccc3F)c2F)c(-c2ccnc(Nc3ccc(N4CCOCC4)nc3)n2)s1 |  |  |  | 6.4 | 1.4 | 7.1 | 24%
6 | Cc1cc(NC(=O)c2cccc(NC(=O)/C=C/CN(C)C)c2)ccc1Nc1nccc(-c2cccnc2)n1 | 92 | 79 | 100 |  |  |  | 
7 | CN(C)C/C=C/C(=O)Nc1ccc(C(=O)Nc2cccc(Nc3nccc(-c4cccnc4)n3)c2)cc1 | 2.2 | 100 | 9.8 |  |  |  | 
8 | CC(C)c1nc(-c2cccc(NS(=O)(=O)c3ccccc3)c2)c(-c2ccnc(Nc3ccc4c(c3)CN(C)CC4)n2)s1 |  |  |  | 49 | 2.3 | 100 | 100%
9 | c1ccc(-c2ccnc3[nH]ccc23)cc1 |  |  |  | 0 | 0 | 0 | 8%
10 | O=C1NC(=O)C(c2ccccc2Cl)=C1Nc1cccc(Cl)c1 |  |  |  | 20 | 0 | 16 | 7%
11 | CS(=O)(=O)Nc1ccc(-c2ccnc3[nH]ccc23)cc1 |  |  |  | 14 | 17 | 10 | 2%
12 | Cn1cc(-c2ccc3c(c2)CCN3C(=O)Cc2ccccc2Cl)c2c(N)ncnc21 |  |  |  | 33 | 0 | 17 | 7%
13 | COc1cc(Nc2ncc3c(C)nc(-c4cc5ccccc5[nH]4)n3n2)cc(OC)c1OC |  |  |  | 70 | 86 | 70 | 93.1% and 99%
14 | Cn1cc(-c2ccc3c(c2)CCN3C(=O)Cc2cc(F)cc(C(F)(F)F)c2)c2c(N)ncnc21 |  |  |  | 25 | 8 | 0 | 0%
15 | CN(C)CCNS(=O)(=O)c1ccc(-c2ccnc3[nH]ccc23)cc1 |  |  |  | 0 | 0 | 0 | 1%
16 | Nc1nccc2scc(-c3ccc4c(c3)CCN4C(=O)Cc3ccccc3)c12 |  |  |  | 18 | 0 | 0 | 14%
17 | O=c1[nH]ccc2nc(N[C@@H]3CCCNC3)nc(Nc3ccc(S(=O)(=O)N4CCOCC4)cc3)c12 |  |  |  | 86 | 100 | 65 | 49%

Row | SMILES | % control [1] [%] | % control [2] [%] | % control [3] [%] | inhibition [4] [%] | inhibition [5] [%] | inhibition [6] [%] | inhibition [7]
18 | Nc1nccc2scc(-c3ccc4c(c3)CCN4C(=O)Cc3cc(F)ccc3F)c12 |  |  |  | 4 | 9 | 0 | 6%
19 | Nc1ncc(-c2cccnc2)c2scc(-c3ccc4c(c3)CCN4C(=O)Cc3ccccc3)c12 |  |  |  | 28 | 44 | 19 | 22%
20 | COc1cccc(CC(=O)N2CCc3cc(-c4cn(C)c5ncnc(N)c45)ccc32)c1 |  |  |  | 25 | 49 | 11 | 24%
21 | Cn1cc(-c2cnc(N)c3c(-c4ccc5c(c4)CCN5C(=O)Cc4ccccc4)csc23)cn1 |  |  |  | 0 | 47 | 0 | 5%
22 | CC(C)Oc1ccc2c(-c3ccnc(Nc4ccc(N5CCN(C)CC5)cc4)n3)cnn2n1 |  |  |  | 7.1 | 14 | 7.4 | 0%
23 | COc1ccc(C2=C(Nc3cccc(C(=O)O)c3)C(=O)NC2=O)cc1 |  |  |  | 2 | 30 | 28 | 0%
24 | Nc1ncc(-c2cn[nH]c2)c2scc(-c3ccc4c(c3)CCN4C(=O)Cc3ccccc3)c12 |  |  |  | 0 | 87 | 0 | 21%
25 | Cc1ccccc1CC(=O)N1CCc2cc(-c3cn(C)c4ncnc(N)c34)ccc21 |  |  |  | 0 | 58 | 0 | 34%
26 | COc1ccc(Nc2ncc(C#N)c(Nc3ccccc3C(N)=O)n2)cc1N1CCN(C)CC1 |  |  |  | 1.8 | 2.5 | 2.6 | 0%
27 | O=S(=O)(c1ccc(-c2ccnc3[nH]ccc23)cc1)N1CCCC1 |  |  |  | 28 | 0 | 20 | 31%
28 | NCCNS(=O)(=O)c1ccc(-c2ccnc3[nH]ccc23)cc1 |  |  |  | 22 | 24 | 0 | 44%
29 | COc1cccc(C2=C(Nc3cccc(Cl)c3)C(=O)NC2=O)c1 |  |  |  | 1 | 0 | 5 | 0%
30 | Cn1cc(-c2ccc3c(c2)CCN3C(=O)Cc2cccc(F)c2)c2c(N)ncnc21 |  |  |  | 0 | 8 | 0 | 28%
31 | Cn1cc(-c2ccc3c(c2)CCN3C(=O)Cc2cccc(C(F)(F)F)c2)c2c(N)ncnc21 |  |  |  | 8 | 14 | 11 | 0%
32 | Cn1cc(-c2ccc3c(c2)CCN3C(=O)Cc2cccc(Cl)c2)c2c(N)ncnc21 |  |  |  | 18 | 0 | 0 | 32%
33 | Cn1cc(-c2ccc3c(c2)CCN3C(=O)Cc2cc(F)cc(F)c2F)c2c(N)ncnc21 |  |  |  | 8 | 38 | 0 | 8%
